Reference: US20230391781A1, “MALT1 MODULATORS AND USES THEREOF” (Rheos Medicines, Inc., priority 2020, published 2023)
Converted amounts (≈) assume the structure as drawn.

Columns and labels:
full length MALT1 = full length MALT1 (Homo sapiens (Human), UniProt Q9UDY8); experiment: MALT1 Biochemical Assay; details: 15 nM enzyme, 30 μM peptide substrate Ac-Leu-Arg-Ser-Arg-Rh110-dPro, 30 min pre-incubation, 60 min reaction; mean value if tested more than once
Summary of the method: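 Full-length human MALT1 was pre-incubated with compound for 30 min, then cleaved a fluorogenic peptide for 60 min in 50 mM Hepes pH 7.5 with 0.8 M sodium citrate and 1 mM DTT. The reaction was quenched with 10 mM iodoacetate and fluorescence was read at 485/520 nm. IC50 came from four-parameter logistic fits of percent inhibition.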

[1] = test system: IL-2 in Jurkat (ATCC, clone E6.1) cells stimulated with anti-CD3/28/2; experiment: Jurkat IL-2 Assay; assay type: cell-based; details: Homo sapiens; IL-2 inhibition, Jurkat cells, 30 min compound then anti-CD3/28/2 stimulation for 24 hours; mean value if tested more than once; read-out: IC50
Summary of the method: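 Jurkat E6.1 T cells in RPMI/10% FBS (below passage 25) were preincubated with a compound dose-response for 30 min, then stimulated with soluble anti-CD3/28/2 for 24 h. IL-2 in the supernatant was measured by MSD immunoassay and viability by CellTiter-Glo luminescence. IC50 came from a 4-parameter fit, reported as ranges, with the mean used where tested repeatedly.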

[2] = High Throughput Dialysis (HTD) Human Plasma Protein Binding Assay; assay type: in vitro ADME; details: pooled human plasma, pH 7.4, equilibrium dialysis, 37° C., read-out: Human PPB (% Unbound)
Description: Human plasma protein binding of various compounds of formula (I) were evaluated using the equilibrium dialysis method described herein.
The dialysis membrane strips (HTD % a/b, catalog number 1101, HTDialysis LLC, Gales Ferry, CT, USA) were soaked in ultra-pure water at room temperature for approximately 1 hour. Each membrane strip containing 2 membranes was separated and soaked in 20:80 ethanol/water (v/v) for approximately 20 minutes, after which they were ready for use or were stored in the solution at 2-8° C. for up to a month. Prior to the experiment, the membrane was rinsed three times and soaked for 20 minutes in ultra-pure water.
On the day of experiment, the human plasma (BiolVT, catalog number […], sodium heparin or EDTA-K2 anticoagulant, multiple individuals pooled) was thawed by running under cold tap water and centrifuged at 3220 rpm for 5 minutes to remove any clots. The pH value of the resulting plasma was confirmed to be 7.0-8.0.
The test compounds and warfarin control (Stru Chem, catalog number SC-16139) were dissolved in dimethyl sulfoxide (DMSO) to obtain 10 mM stock solutions. DMSO working solutions were prepared at 400 μM. To prepare the loading matrix, the compound working solutions (5 μL) were added in a 1:200 ratio to blank human plasma (995 μL) and mixed thoroughly.
The time zero (T0) samples to be used for recovery determination were prepared as follows: 50 μL aliquots of loading matrix were transferred in triplicate to the sample collection plate. The samples were immediately matched with opposite blank buffer (basic solution (14.2 g/L Na2HPO4 and 8.77 g/L NaCl in deionized water) titrated with acidic solution (15.6 g/L NaH2PO4·2H2O and 8.77 g/L NaCl in deionized water) to pH 7.4±0.1) to obtain a final volume of 100 μL of 1:1 matrix/dialysis buffer (v/v) in each well. 500 μL stop solution (200 ng/mL tolbutamide and 200 ng/mL labetalol in acetonitrile) were added to these TO samples. They were then stored at 2-8° C. for further processing along with other post-dialysis samples.
To load the dialysis device (96-well equilibrium dialysis plate, model 96b, catalog number 1006. HTDialysis LLC, Gales Ferry, CT, USA), an aliquot of 150 μL of the loading matrix was transferred to the donor side of each dialysis well in triplicate, and 150 μL of the dialysis buffer was loaded to the receiver side of the well. The dialysis plate was placed in a humidified incubator at 37° C. with 5% CO2 on a shaking platform that rotated slowly (about 100 rpm) for 4 hours.
At the end of the dialysis, aliquots of 50 μL of the samples were taken from both the buffer side and the matrix side of the dialysis device. These samples were transferred into new 96-well plates (polypropylene, 2.2 mL/well, catalog number DWP-22-96-SQ-U-C-L. Apricot). Each sample was mixed with an equal volume of opposite blank matrix (buffer or matrix) to reach a final volume of 100 μL of 1:1 matrix/dialysis buffer (v/v) in each well. All samples were further processed by adding 500 μL of stop solution containing internal standards. The mixture was vortexed and centrifuged at 4000 rpm for about 20 minutes. An aliquot of 100 μL of supernatant of all the samples was then removed for LC-MS/MS analysis. Test compound concentrations in matrix and buffer samples were expressed as peak area ratios (PAR) of analyte/internal standard (no standard curve).
The single blank samples were prepared by transferring 50 μL of blank matrix to a 96 well plate (polypropylene. 2.2 mL/well, catalog number DWP-22-96-SQ-U-C-L, Apricot) and adding 50 μL of blank PBS buffer to each well. The blank plasma must match the species of plasma used in the plasma side of the well. Then the matrix-matched samples were further processed by adding 500 μL of stop solution containing internal standards, following the same sample processing method as the dialysis samples. […]

[3] = Thermodynamic Solubility (Ts) Assay in Fasted State Simulated Intestinal Fluid (FaSSIF); assay type: physicochemical; details: thermodynamic from solid, FaSSIF pH 6.5, shake flask, 25° C., HPLC-UV
Description: The solubilities of various compounds of formula (I) were determined using a thermodynamic solubility assay. The thermodynamic solubility assay employed the shake flask method followed by HPLC-UV analysis. The following stepwise procedure was followed:
Samples of no less than 2.0 mg were weighed into the lower chambers of Whatman mini-uniprep vials (catalog number UN203NPUORG) and 450 μL of FaSSIF media (0.056% (w/v) lecithin, 0.161% (w/v) sodium taurocholate, 0.39% (w/v) monobasic potassium phosphate, 0.77% (w/v) potassium chloride, deionized H2O, pH 6.5) was added into each vial.
After the buffer was added, the filter pistons of the mini-uniprep vials were placed to the position of the liquid level to ensure the full contact of buffer and compound with the filter during the incubation.
The samples were then vortexed for 2 minutes, after which they were incubated at 25° C. with shaking (880 rpm) for 24 hours.
The samples were then centrifuged at 4000 rpm (20° C.) for 10 min.
The miniunipreps were then compressed to prepare filtrates, and the test concentration of the compound in the filtrate was determined using HPLC-UV (Waters XBridge C18, 4.6*100 mm column; mobile phase A: 0.1% TFA in H2O; mobile phase B: 0.1% TFA in acetonitrile). At least 5 UV standard solutions (e.g. amiodarone hydrochloride, carbamazepine, dexamethasone) were injected into the HPLC from low to high concentration subsequently followed by testing of the thermodynamic solubility supernatants in duplicate. The solubilities of the tested compounds are given in μg/mL.

Chain of full length MALT1 (Q9UDY8 whole entry): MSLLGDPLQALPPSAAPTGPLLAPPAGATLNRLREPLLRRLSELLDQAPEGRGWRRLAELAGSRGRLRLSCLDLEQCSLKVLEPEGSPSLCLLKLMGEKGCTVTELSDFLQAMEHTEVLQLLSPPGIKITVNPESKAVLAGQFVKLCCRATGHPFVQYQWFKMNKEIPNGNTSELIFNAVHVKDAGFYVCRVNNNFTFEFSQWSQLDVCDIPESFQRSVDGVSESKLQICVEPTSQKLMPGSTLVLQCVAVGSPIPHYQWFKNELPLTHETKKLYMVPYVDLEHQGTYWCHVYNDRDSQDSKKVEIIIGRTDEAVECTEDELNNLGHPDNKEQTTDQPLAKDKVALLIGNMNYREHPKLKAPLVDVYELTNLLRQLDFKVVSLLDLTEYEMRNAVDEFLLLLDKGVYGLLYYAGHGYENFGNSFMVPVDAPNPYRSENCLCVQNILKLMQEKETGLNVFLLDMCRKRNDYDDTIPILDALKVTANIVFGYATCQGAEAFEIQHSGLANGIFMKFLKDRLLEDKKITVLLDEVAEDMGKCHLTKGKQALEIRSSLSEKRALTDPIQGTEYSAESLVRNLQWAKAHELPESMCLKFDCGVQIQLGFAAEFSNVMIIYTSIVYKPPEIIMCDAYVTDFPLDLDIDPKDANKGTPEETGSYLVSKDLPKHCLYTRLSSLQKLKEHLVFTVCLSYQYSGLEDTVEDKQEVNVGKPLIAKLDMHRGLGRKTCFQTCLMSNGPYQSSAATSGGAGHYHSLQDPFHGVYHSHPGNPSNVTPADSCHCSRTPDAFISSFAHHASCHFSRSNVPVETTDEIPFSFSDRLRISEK

SMILES | IC50 (full length MALT1) [nM] | IC50 [1] [nM] | fraction unbound at 4 h, 2 µM [2] | solubility at 24 h [3] [µg/mL]
CO[C@@H](C)c1c(Nc2ccc([C@H](N(C)C(=O)C3CCS(=O)(=O)CC3)C(F)(F)F)cc2)cnc2nc(Cl)nn12 [Compound 1.1, N-[(1S)-1-[4-({2-chloro-7-[(1S)-1-methoxyethyl]-[1,2,4]triazolo[1,5-a]pyrimidin-6-yl}amino)phenyl]-2,2,2-trifluoroethyl]-N-methyl-1,1-dioxo-1λ^6-thiane-4-carboxamide] | < 100 | 100 to 1000 | > 0.2 | 250 to 1750 (≈ 435 to 3040 µM)
CO[C@@H](C)c1c(Nc2ccc([C@H](N(C)C(=O)C3CCC(F)(F)CC3)C(F)(F)F)cc2)cnc2nc(Cl)nn12 [Compound 1.8, N-[(1S)-1-[4-({2-chloro-7-[(1S)-1-methoxyethyl]-[1,2,4]triazolo[1,5-a]pyrimidin-6-yl}amino)phenyl]-2,2,2-trifluoroethyl]-4,4-difluoro-N-methylcyclohexane-1-carboxamide] | 100 to 1000 | 100 to 1000 | < 0.08 | < 250
CO[C@@H](C)c1c(Nc2ccc([C@H](N(C)C(=O)C3CN(C(C)=O)C3)C(F)(F)F)cc2)cnc2nc(Cl)nn12 [Compound 1.15, 1-acetyl-N-[(1S)-1-[4-({2-chloro-7-[(1S)-1-methoxyethyl]-[1,2,4]triazolo[1,5-a]pyrimidin-6-yl}amino)phenyl]-2,2,2-trifluoroethyl]-N-methylazetidine-3-carboxamide] | 100 to 1000 | 100 to 1000 | > 0.2 | > 1750
CC(C)c1c(Nc2ccc([C@H](N(C)C(=O)C3CCS(=O)(=O)CC3)C(F)(F)F)cc2)cnc2nc(Cl)nn12 [Compound 1.18, N-[(1S)-1-(4-{[2-chloro-7-(propan-2-yl)-[1,2,4]triazolo[1,5-a]pyrimidin-6-yl]amino}phenyl)-2,2,2-trifluoroethyl]-N-methyl-1,1-dioxo-1λ^6-thiane-4-carboxamide] | < 100 | < 100 | < 0.08 | < 250
CC(=O)N1CCC(C(=O)N(C)[C@@H](c2ccc(Nc3cnc4nc(Cl)nn4c3C(C)C)cc2)C(F)(F)F)CC1 [Compound 1.19, 1-acetyl-N-[(1S)-1-(4-{[2-chloro-7-(propan-2-yl)-[1,2,4]triazolo[1,5-a]pyrimidin-6-yl]amino}phenyl)-2,2,2-trifluoroethyl]-N-methylpiperidine-4-carboxamide] | < 100 | < 100 | < 0.08 | < 250
CO[C@@H](C)c1c(Nc2ccc([C@H](N(C)C(=O)C3CCN(C(C)=O)CC3)C(F)(F)F)cc2)cnc2nc(Cl)nn12 [Compound 3.1, 1-acetyl-N—((S)-1-(4-((2-chloro-7-((S)-1-methoxyethyl)-[1,2,4]triazolo[1,5-a]pyrimidin-6-yl)amino)phenyl)-2,2,2-trifluoroethyl)-N-methylpiperidine-4-carboxamide] | < 100 | 100 to 1000 | > 0.2 | 250 to 1750 (≈ 440 to 3080 µM)

More lines, now with the values ahead:

IC50 (full length MALT1) [nM] | IC50 [1] [nM] | fraction unbound at 4 h, 2 µM [2] | solubility at 24 h [3] [µg/mL] | SMILES
< 100 | 100 to 1000 | < 0.08 | < 250 | CO[C@@H](C)c1c(Nc2ccc([C@H](N(C)C(=O)C3CCN(S(C)(=O)=O)CC3)C(F)(F)F)cc2)cnc2nc(Cl)nn12 [Compound 3.4, N-[(1S)-1-[4-({2-chloro-7-[(1S)-1-methoxyethyl]-[1,2,4]triazolo[1,5-a]pyrimidin-6-yl}amino)phenyl]-2,2,2-trifluoroethyl]-1-methanesulfonyl-N-methylpiperidine-4-carboxamide]
< 100 | 100 to 1000 | 0.08 to 0.2 | < 250 | CO[C@@H](C)c1c(Nc2ccc([C@H](N(C)C(=O)C3CCN(C(=O)C4CC4)CC3)C(F)(F)F)cc2)cnc2nc(Cl)nn12 [Compound 4.1, N—((S)-1-(4-((2-chloro-7-((S)-1-methoxyethyl)-[1,2,4]triazolo[1,5-a]pyrimidin-6-yl)amino)phenyl)-2,2,2-trifluoroethyl)-1-(cyclopropanecarbonyl)-N-methylpiperidine-4-carboxamide]
100 to 1000 | 100 to 1000 | > 0.2 | > 1750 | CO[C@@H](C)c1c(Nc2ccc([C@H](N(C)C(=O)C3CCN(C)CC3)C(F)(F)F)cc2)cnc2nc(Cl)nn12 [Compound 5.1, N—((S)-1-(4-((2-chloro-7-((S)-1-methoxyethyl)-[1,2,4]triazolo[1,5-a]pyrimidin-6-yl)amino)phenyl)-2,2,2-trifluoroethyl)-N,1-dimethylpiperidine-4-carboxamide]
100 to 1000 | > 1000 | 0.08 to 0.2 | > 1750 | CO[C@@H](C)c1c(Nc2ccc([C@H](N(C)C(=O)[C@H]3CC[C@H](C(=O)O)CC3)C(F)(F)F)cc2)cnc2nc(Cl)nn12 [Compound 7.1, (1S,4r)-4-(((S)-1-(4-((2-chloro-7-((S)-1-methoxyethyl)-[1,2,4]triazolo[1,5-a]pyrimidin-6-yl)amino)phenyl)-2,2,2-trifluoroethyl)(methyl)carbamoyl)cyclohexane-1-carboxylic acid]
< 100 | 100 to 1000 | 0.08 to 0.2 | – | CO[C@@H](C)c1c(Nc2ccc([C@H](N(C)C(=O)[C@H]3CC[C@H](C(N)=O)CC3)C(F)(F)F)cc2)cnc2nc(Cl)nn12 [Compound 8.1, (1r,4S)—N1-((S)-1-(4-((2-chloro-7-((S)-1-methoxyethyl)-[1,2,4]triazolo[1,5-a]pyrimidin-6-yl)amino)phenyl)-2,2,2-trifluoroethyl)-N1-methylcyclohexane-1,4-dicarboxamide]
